Like-named read-outs stand apart in the source and are kept apart here.

The values below come from US12054498B2, “Heteroaromatic macrocyclic ether chemotherapeutic agents” (Nuvalent, Inc., priority 2020, dated 2024).

The conditions of data set [1]: from CCn1ccc(C(=O)c2nn(C)nc2-c2ccc(F)cc2[C@@H](C)Oc2cc(Br)cnc2N)c1; cc_pd bond; 12-membered ring; Pd(OAc)2/cataCXium A/KOAc; 2-methyl-2-butanol; 38.0 mM; 120.0 °C.
The conditions of data set [2]: cc_pd bond, Pd(OAc)2/cataCXium A, KOAc, 2-methyl-2-butanol, 120.0 °C.
In data set [3] the test system is ROS1-positive NSCLC. Conditions: ROS1-positive NSCLC patients; cited from earlier work.
The conditions of data set [4]: from Cc1nn(CC2CC2)cc1Cc1nn(C)nc1-c1ccc(F)cc1C(CO[Si](C)(C)C(C)(C)C)Oc1cc(Br)cnc1N; cc_pd bond; 12-membered ring; Pd(OAc)2/cataCXium A/KOAc; 2-methyl-2-butanol; 30.0 mM; 120.0 °C.
Data set [5] addresses T1, Ba/F3 cells CD74-ROS1 wild-type (wt) (Homo sapiens, UniProt P08922).
T1 construct: fusion of the C-terminus of ROS1 with the N-terminus of various partner proteins; host or cells: Ba/F3 (RIKEN), retroviral pMSCV-puro; the other entry of the earlier key: CD74 (P04233, HLA class II histocompatibility antigen gamma chain)
As to the kind of experiment: Ba/F3 cell proliferation assay, CD74-ROS1 wild-type. Conditions: 72 hours, CellTiter-Glo. Format: cell-based. Summed up: (§1)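 IL-3-independent Ba/F3 CD74-ROS1 lines, puromycin-selected monoclones; 1,000 cells/well, plated 1 d before dosing; 3-fold serial dilutions, 72 h; CellTiter-Glo luminescence; IC50 by 4-parameter logistic regression.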
A general note: ATP-based viability assays read luminescence as a measure of living cells.

The test system of data set [6] is TPM3-NTRK1-wt IC50 / primary target IC50 (e.g. CD74-ROS1-wt). As to the kind of experiment: TRKA selectivity in Ba/F3 cells (TRKA potency divided by primary target potency). It counts as cell-based. The note with it: for TPM3-NTRK1-wt/CD74-ROS1-G2032R selectivity ratio: TRKA potency / CD74-ROS1-G2032R potency; for TPM3-NTRK1-wt/CD74-ROS1-wt selectivity ratio: TRKA potency / CD74-ROS1-wt potency; for TPM3-NTRK1-wt/EML4-ALK-L1196M-G1202R selectivity ratio: TRKA potency / EML4-ALK-L1196M-G1202R potency; for TPM3-NTRK1-wt/EML4-ALK-wt selectivity ratio: TRKA potency / EML4-ALK-wt potency. On the procedure:
TRKA selectivity was calculated by dividing a compound's TRKA potency by its primary target potency (e.g. TPM3-NTRK1-wt IC50/CD74-ROS1-wt IC50). Compound selectivity can be interpreted by binning ratio values: bin A for very high selectivity, ratio >30-fold; bin B for high selectivity, ratio >10-fold; bin C for moderate selectivity, ratio ≥1; and bin D for low selectivity, ratio <1. […] (nd=not determined).

The target of data set [7] is T2, Ba/F3 cells CD74-ROS1 G2032R (Homo sapiens, UniProt P08922, G2032R).
T2 construct: fusion of the C-terminus of ROS1 with the N-terminus of various partner proteins; host or cells: Ba/F3 (RIKEN), retroviral pMSCV-puro; the other entry of the earlier key: CD74 (P04233, HLA class II histocompatibility antigen gamma chain)
T2 sequence (P08922 1883-2347 G2032R limits assumed): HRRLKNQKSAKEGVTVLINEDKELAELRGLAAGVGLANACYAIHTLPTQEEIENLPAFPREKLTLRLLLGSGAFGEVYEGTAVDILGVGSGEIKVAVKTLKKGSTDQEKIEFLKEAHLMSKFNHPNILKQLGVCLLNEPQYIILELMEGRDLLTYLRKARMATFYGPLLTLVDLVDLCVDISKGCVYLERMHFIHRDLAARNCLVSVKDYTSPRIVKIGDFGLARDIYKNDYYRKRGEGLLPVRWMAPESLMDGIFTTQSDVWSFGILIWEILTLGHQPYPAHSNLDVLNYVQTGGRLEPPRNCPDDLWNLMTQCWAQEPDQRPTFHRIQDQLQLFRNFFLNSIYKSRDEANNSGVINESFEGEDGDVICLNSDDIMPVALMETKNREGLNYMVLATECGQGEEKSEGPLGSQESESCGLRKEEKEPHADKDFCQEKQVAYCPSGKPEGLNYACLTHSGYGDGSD
As to the kind of experiment: Ba/F3 cell proliferation assay, CD74-ROS1 G2032R. It counts as cell-based. The note with it: 72 hours, CellTiter-Glo. Summed up: as §1

In data set [8] the target is T3, Ba/F3 cells EML4-ALK wt (variant 1) (Homo sapiens, UniProt Q9UM73).
T3 construct: echinoderm microtubule-associated protein-like 4 (EML4) gene and the ALK tyrosine kinase domain; host or cells: Ba/F3 (RIKEN), retroviral pMSCV-puro; the other entry of the earlier key: EML4 (Q9HC35, Echinoderm microtubule-associated protein-like 4)
T3 sequence (Q9UM73 with tags, fused parts or gaps): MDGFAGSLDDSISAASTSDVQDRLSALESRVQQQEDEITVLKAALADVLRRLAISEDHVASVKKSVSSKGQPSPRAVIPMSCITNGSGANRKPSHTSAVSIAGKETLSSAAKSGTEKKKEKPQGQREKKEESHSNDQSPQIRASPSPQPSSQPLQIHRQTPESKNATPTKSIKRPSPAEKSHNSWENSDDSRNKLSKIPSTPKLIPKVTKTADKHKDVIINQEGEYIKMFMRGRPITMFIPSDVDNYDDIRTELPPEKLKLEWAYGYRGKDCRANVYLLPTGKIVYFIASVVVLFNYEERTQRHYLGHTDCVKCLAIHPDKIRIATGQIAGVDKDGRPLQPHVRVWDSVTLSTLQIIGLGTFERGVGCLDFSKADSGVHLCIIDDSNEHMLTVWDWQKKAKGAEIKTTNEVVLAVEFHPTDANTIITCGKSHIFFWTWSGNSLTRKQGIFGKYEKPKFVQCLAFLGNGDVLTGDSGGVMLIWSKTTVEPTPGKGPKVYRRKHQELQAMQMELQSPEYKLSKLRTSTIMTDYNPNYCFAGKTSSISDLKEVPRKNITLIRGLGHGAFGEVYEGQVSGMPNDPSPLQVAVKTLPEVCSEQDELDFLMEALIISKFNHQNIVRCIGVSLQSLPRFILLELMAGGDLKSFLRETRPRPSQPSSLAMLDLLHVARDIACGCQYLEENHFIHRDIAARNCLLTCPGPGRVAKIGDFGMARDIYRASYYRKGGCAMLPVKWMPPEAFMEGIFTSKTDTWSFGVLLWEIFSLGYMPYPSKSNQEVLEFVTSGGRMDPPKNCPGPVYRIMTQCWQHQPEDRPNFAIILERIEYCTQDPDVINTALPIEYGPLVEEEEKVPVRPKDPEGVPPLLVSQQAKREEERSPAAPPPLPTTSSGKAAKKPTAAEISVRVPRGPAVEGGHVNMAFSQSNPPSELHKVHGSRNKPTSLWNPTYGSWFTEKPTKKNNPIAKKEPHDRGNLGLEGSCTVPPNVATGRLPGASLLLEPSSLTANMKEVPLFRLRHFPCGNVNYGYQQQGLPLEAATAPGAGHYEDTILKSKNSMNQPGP
As to the kind of experiment: Ba/F3 cell proliferation assay, EML4-ALK wt (variant 1). It counts as cell-based. The note with it: 72 hours, CellTiter-Glo. Summed up:
(§2)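 IC50 values come from four-parameter logistic regression of CellTiter-Glo luminescence after 72 h exposure to 3-fold serial dilutions. Cells are Ba/F3 transformed by retroviral fusion-kinase constructs, grown without IL-3 under puromycin, plated at 1,000 per well a day before dosing.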

Data set [9] concerns the target T4, ALK L1196M/G1202R (Homo sapiens, UniProt Q9UM73, G1202R/L1196M).
T4 construct: purchased SignalChem A19-12NG
As to the kind of experiment: Biochemical kinase assay, ALK L1196M/G1202R kinase domain. Conditions: apparent inhibitory constant, Morrison equation; ATP 2 mM in substrate solution; read-out: ALK-L1196M-G1202R Ki^app. Summed up:
(§3)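 Continuous fluorescence read (λ=485 nm, every 2 min, 120 min, 30° C). Substrate solution held 2 mM ATP and 26 μM AQT0101 (ROS1/ALK) or AQT0104 (TRKA). Kinase solution: ROS1-G2032R 0.5 nM, ROS1-wt 0.6 nM, TRKA 1 nM, ALK double mutant 3 nM. Initial linear rates fed a Morrison-equation fit giving Ki^app.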

The target in data set [10] is T5, ALK-wt (Homo sapiens, UniProt Q9UM73).
T5 construct: purchased Carna 08-518
T5 sequence (Q9UM73 1116-1392 limits assumed): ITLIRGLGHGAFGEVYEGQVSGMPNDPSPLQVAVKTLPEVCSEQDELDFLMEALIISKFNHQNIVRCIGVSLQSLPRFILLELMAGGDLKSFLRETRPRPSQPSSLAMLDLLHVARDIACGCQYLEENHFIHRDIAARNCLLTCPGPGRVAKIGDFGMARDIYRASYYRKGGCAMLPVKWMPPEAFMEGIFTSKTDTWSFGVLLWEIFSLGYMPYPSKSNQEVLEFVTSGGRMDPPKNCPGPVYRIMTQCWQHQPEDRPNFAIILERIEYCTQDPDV
As to the kind of experiment: Biochemical kinase assay, ALK-wt kinase domain. The note with it: apparent inhibitory constant, Morrison equation; ATP 2 mM in substrate solution; read-out: ALK-wt Ki^app. Summed up:
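Compound in DMSO added first, then substrate solution (ATP 2 mM; AQT0101 or AQT0104, 26 μM; pH 7.5 HEPES, 10 mM MgCl2), then kinase solution with enzyme at 0.5–3 nM depending on construct. Kinetic read every 2 min for 120 min at 30° C; Ki^app by Morrison regression.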

Data set [11] deals with T6, TRKA-wt (Homo sapiens, UniProt P04629).
T6 construct: or TRKA-wt (1 nM, BPS Bio, 40280) kinase domains in buffer; purchased BPS Bio 40280
T6 sequence (P04629 510-781 limits assumed): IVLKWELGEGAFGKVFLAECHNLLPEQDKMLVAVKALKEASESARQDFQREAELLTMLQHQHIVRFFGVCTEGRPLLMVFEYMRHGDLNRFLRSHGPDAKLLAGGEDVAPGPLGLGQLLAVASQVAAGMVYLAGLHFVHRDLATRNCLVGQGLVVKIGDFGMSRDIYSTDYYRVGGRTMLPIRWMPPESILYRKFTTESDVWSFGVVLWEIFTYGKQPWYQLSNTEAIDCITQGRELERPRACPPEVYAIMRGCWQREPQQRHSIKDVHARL
As to the kind of experiment: Biochemical kinase assay, TRKA-wt kinase domain. The note with it: apparent inhibitory constant, Morrison equation; ATP 2 mM in substrate solution; read-out: TRKA-wt Ki^app. Summed up: as §3

The target of data set [12] is T7, Ba/F3 cells EML4-ALK L1196M/G1202R (variant 1) (Homo sapiens, UniProt Q9UM73, G1202R/L1196M).
T7 construct: echinoderm microtubule-associated protein-like 4 (EML4) gene and the ALK tyrosine kinase domain; host or cells: Ba/F3 (RIKEN), retroviral pMSCV-puro; the other entry of the earlier key: EML4 (Q9HC35, Echinoderm microtubule-associated protein-like 4)
T7 sequence (Q9UM73 with tags, fused parts or gaps L1196M/G1202R): as the sequence (Q9UM73 with tags, fused parts or gaps) above, with L635M, G641R counted along it
Nature of the data set: Ba/F3 cell proliferation assay, EML4-ALK L1196M/G1202R (variant 1). It counts as cell-based. The note with it: 72 hours, CellTiter-Glo. Summed up:
as §2

Data set [13] concerns the target T8, ROS1-wt (Homo sapiens, UniProt P08922).
T8 construct: purchased Carna 08-163
As to the kind of experiment: Biochemical kinase assay, ROS1-wt kinase domain. Conditions: apparent inhibitory constant, Morrison equation; ATP 2 mM in substrate solution; read-out: ROS1-wt Ki^app. Summed up: (§4)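 Kinetic read: 485 nm, 2-min intervals, 120 min, 30 °C. Substrate mix — ATP 2 mM, AQT0101 26 μM, HEPES 50 mM pH 7.5, MgCl2 10 mM. Output: Ki^app, Morrison equation.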

In data set [14] the target is T9, Ba/F3 cells TPM3-TRKA (Homo sapiens, UniProt P04629).
T9 construct: host or cells: Ba/F3 (RIKEN), retroviral pMSCV-puro; the other entry of the earlier key: TPM3 (P06753, Tropomyosin alpha-3 chain)
T9 sequence (P04629 510-796 limits assumed): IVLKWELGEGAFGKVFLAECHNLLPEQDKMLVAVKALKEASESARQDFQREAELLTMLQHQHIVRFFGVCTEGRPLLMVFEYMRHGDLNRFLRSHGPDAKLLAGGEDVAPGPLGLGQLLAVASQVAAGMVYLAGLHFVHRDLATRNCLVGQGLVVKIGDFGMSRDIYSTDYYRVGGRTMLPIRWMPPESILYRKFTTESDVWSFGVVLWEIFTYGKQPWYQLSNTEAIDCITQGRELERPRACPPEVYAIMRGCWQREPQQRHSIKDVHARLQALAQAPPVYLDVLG
Nature of the data set: Ba/F3 cell proliferation assay, TPM3-TRKA. It counts as cell-based. The note with it: 72 hours, CellTiter-Glo, read-out: TPM3-NTRK1-wt IC50. Summed up:
as §2

Data set [15] concerns the target T10, ROS1-G2032R (Homo sapiens, UniProt P08922, G2032R).
T10 construct: purchased SignalChem R14-12BG
As to the kind of experiment: Biochemical kinase assay, ROS1-G2032R kinase domain. The note with it: apparent inhibitory constant, Morrison equation; ATP 2 mM in substrate solution; read-out: ROS1-G2032R Ki^app. Summed up: as §4

T1 sequence (P08922 1883-2347 limits assumed): as the sequence (P08922 1883-2347 G2032R limits assumed) above, with R150G counted along it
T4 sequence (Q9UM73 1116-1392 L1196M/G1202R limits assumed): as the sequence (Q9UM73 1116-1392 limits assumed) above, with L81M, G87R counted along it
T8 sequence (P08922 1945-2222 limits assumed): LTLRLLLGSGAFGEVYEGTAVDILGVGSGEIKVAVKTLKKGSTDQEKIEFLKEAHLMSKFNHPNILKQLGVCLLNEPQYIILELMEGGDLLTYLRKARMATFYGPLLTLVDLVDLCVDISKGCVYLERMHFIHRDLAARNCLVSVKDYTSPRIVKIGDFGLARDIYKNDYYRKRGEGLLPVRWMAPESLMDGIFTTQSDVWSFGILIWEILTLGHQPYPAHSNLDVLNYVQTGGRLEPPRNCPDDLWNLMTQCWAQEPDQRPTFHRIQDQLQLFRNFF
T10 sequence (P08922 1945-2222 G2032R limits assumed): as the sequence (P08922 1945-2222 limits assumed) above, with G88R counted along it

Take `CCn1ccc2c1-c1cnc(N)c(c1)O[C@H](C)c1cc(F)ccc1-c1nn(C)nc1C2=O`: in [1], the ring closure, yield after HPLC amounted to 15%. For the same compound, in data set [2] (from CCn1ccc(C(=O)c2nn(C)nc2-c2ccc(F)cc2[C@@H](C)Oc2cc(Br)cnc2N)c1, 38.0 mM, 12.0 h), the ring closure, yield of all isomers stood at 15%.

As to `C[C@@H](Oc1cc(-c2cnn(C3CCNCC3)c2)cnc1N)c1c(Cl)ccc(F)c1Cl` [Crizotinib, crizotinib], in data set [3], the median progression-free survival is 9-19 months and the overall response rate is listed as 60-80%.

In turn, `Cc1nn(CC2CC2)c2c1Cc1nn(C)nc1-c1ccc(F)cc1C(CO[Si](C)(C)C(C)(C)C)Oc1cc-2cnc1N` (stereo not shown) showed a ring closure, isolated yield in data set [4] of 23%. Moreover, in data set [2] (from Cc1nn(CC2CC2)cc1Cc1nn(C)nc1-c1ccc(F)cc1C(CO[Si](C)(C)C(C)(C)C)Oc1cc(Br)cnc1N, 30.0 mM), the ring closure, yield of all isomers is 23%.

The IC50 is the point on the concentration scale where inhibition reaches its midpoint. With `C[C@H]1Oc2cc(cnc2N)-c2c(CC3CC3)nn(C)c2Cn2ncnc2-c2ccc(F)cc21` [Example 99, (19R)-3-(cyclopropylmethyl)-16-fluoro-5,19-dimethyl-20-oxa-4,5,8,9,11,23-hexaazapentacyclo[19.3.1.0^2,^6.0^8,^12.0^13,^18]pentacosa-1(24),2(6),3,9,11,13,15.17,21(25),22-decaen-22-amine], the half-inhibitory concentration (IC50) was 0.1 to 50 nM in [5]; 0.1 to 50 nM in data set [7]; 0.1 to 50 nM in [8]; 50 to 500 nM in data set [12]; above 500 nM in data set [14]. Also, the TPM3-NTRK1-wt/CD74-ROS1-G2032R selectivity ratio entry in data set [6] is recorded as “A (bin A for very high selectivity, ratio >30-fold)”. Besides, the TPM3-NTRK1-wt/CD74-ROS1-wt selectivity ratio result in data set [6] is on record as “A (bin A for very high selectivity, ratio >30-fold)”. Further, the TPM3-NTRK1-wt/EML4-ALK-L1196M-G1202R selectivity ratio entry in data set [6] is on record as “B (bin B for high selectivity, ratio >10-fold)”. The TPM3-NTRK1-wt/EML4-ALK-wt selectivity ratio entry in [6] was “A (bin A for very high selectivity, ratio >30-fold)”. Also, the Ki in data set [9] is below 50 nM; in [10] it was below 50 nM; in data set [11], above 500 nM; in data set [13], below 50 nM; in data set [15], below 50 nM.

Consider `Cc1nc2n(n1)Cc1cnn(CC3CC3)c1-c1cnc(N)c(c1)O[C@H](C)c1cc(F)ccc1-2` [Example 75, (19R)-3-(cyclopropylmethyl)-16-fluoro-10,19-dimethyl-20-oxa-3,4,8,9,11,23-hexaazapentacyclo[19.3.10^2,^6.0^8,^12.0^13,^18]pentacosa-1(24),2(6),4,9,11,13,15,17,21(25),22-decaen-22-amine], for which the IC50 is 0.1 to 50 nM in [5]; 0.1 to 50 nM in data set [7]; 0.1 to 50 nM in data set [8]; 0.1 to 50 nM in data set [12]; 50 to 500 nM in data set [14]. In addition, the TPM3-NTRK1-wt/CD74-ROS1-G2032R selectivity ratio result in data set [6] is recorded as “A (bin A for very high selectivity, ratio >30-fold)”. Also, the TPM3-NTRK1-wt/CD74-ROS1-wt selectivity ratio entry in data set [6] was “A (bin A for very high selectivity, ratio >30-fold)”. For the same compound, the TPM3-NTRK1-wt/EML4-ALK-L1196M-G1202R selectivity ratio result in data set [6] is “B (bin B for high selectivity, ratio >10-fold)”. The TPM3-NTRK1-wt/EML4-ALK-wt selectivity ratio result in [6] is given as “A (bin A for very high selectivity, ratio >30-fold)”. The Ki in data set [9] is below 50 nM; in [10], below 50 nM; in [11] it was 50 to 500 nM; in data set [13], below 50 nM; in [15], below 50 nM.
